{"source": "patent US7186703B2", "about": "“Derivatives of branched-chain lipophilic molecules and uses thereof” (D-Pharm Ltd., priority 2000, dated 2007)", "key": {"[1]": {"tested_on": "DNA fragmentation in Neuro2a neuroblastoma cells", "test": "DNA fragmentation in Neuro2a cells (Cell Death Detection Elisa)", "type": "cell-based, mouse", "conditions": "for DNA fragmentation (OD405 nm): 24 hours, Neuro2a (control 0.030)", "procedure": "(§1) In order to further explore the possible mechanism underlying the cytotoxic effect exerted by the various DP-BFAs, two established markers for apoptosis, caspase-3 activity and DNA fragmentation (Lincz (1998) Immunol. Cell Biol. 76: 1–19), were studied.\n(§2) Neuro2a neuroblastoma cells (ATCC, CCL-131) were seeded in MEM containing 2 mM L-glutamine, 100 units/ml penicillin, 100 ug/ml streptomycin and 10% FCS at 37° C. 24 hours later, when cells were in logarithmic growth phase, 3,12-DEG-PC was added to a final concentration of 25 μM, 50 μM or 100 μM. Cells grown in the presence of vehicle only served as control group.\n(§3) Assays for caspase-3 activity and DNA-fragmentation were performed on cell lysates obtained following, respectively, 6 and 24 hours incubation with the drug. Caspase-3 activity was assayed using the fluorogenic substrate Ac-DEVD-AMC (Pharmingen, Becton Dickinson, cat. no. 66081U) and following the manufacture's instructions. DNA-fragmentation was quantified by using the Cell Death Detection Elisa plus kit (Roche, cat. no. 1774 425) and following the manufacture's instructions.\n(§4) The measured caspase activity is expressed as percentage of the activity in the control plates normalized to protein content. DNA-fragmentation is expressed as OD values at λ=405 nm and is an average of readings from duplicate cell culture lysates."}, "[2]": {"tested_on": "caspase-3 activity in Neuro2a neuroblastoma cells", "test": "Caspase-3 activity in Neuro2a cell lysates (Ac-DEVD-AMC substrate)", "type": "cell-based, mouse", "procedure": "as §1, §2, §3, §4"}}, "data": [{"smiles": "CCCCCCCCCCCCC(CCC)C(=O)OCCOCCOP(=O)([O-])OCC[N+](C)(C)C", "note": "(stereo not shown) [3,12-DEG-PC, 2-(2′-Propyltetradecanoyloxy)ethoxyethylphosphocholine]", "values": [{"measurement": "DNA fragmentation (OD405 nm)", "setting": "[1]; 25 μM", "result": 0.036, "unit": "OD405 nm"}, {"measurement": "DNA fragmentation (OD405 nm)", "setting": "[1]; 50 μM", "result": 0.153, "unit": "OD405 nm"}, {"measurement": "DNA fragmentation (OD405 nm)", "setting": "[1]; 100 μM", "result": 0.389, "unit": "OD405 nm"}, {"measurement": "DNA fragmentation (in words)", "setting": "[1]; Neuro2a cells", "result": "significant increase in DNA fragmentation"}, {"measurement": "activity at 25 µM", "setting": "[2]; Mus musculus, N2a, 25 μM, 6 hours, Neuro2a, normalized to protein content, read-out: Caspase activity (% of control)", "result": 210, "unit": "%"}, {"measurement": "activity at 50 µM", "setting": "[2]; Mus musculus, N2a, 50 μM, 6 hours, Neuro2a, normalized to protein content, read-out: Caspase activity (% of control)", "result": 540, "unit": "%"}, {"measurement": "increase in caspase-3 activity", "setting": "[2]; Neuro2a cells", "result": "about 5 fold"}]}]}
